# Assay results taken from patent US20090042946A1, “METHOD AND KIT FOR C[…]” (priority 2003, published 2009).
# Tested on: severed left femoral artery
# Assay: Severed femoral artery bleeding model in anesthetized mice, topical VRA by cotton-tipped applicator
# Assay type: in vivo
# Method: Approximately 4 to 6 week old white mice weighing about 20 grams were anesthetized using 50 microliters of anesthetic (ketamine+xylazine) intraperitoneally. The area near the inguinal region (1.75 cm proximal to the ankle) was shaved and a 0.5 to 1 cm incision was made such that the left femoral artery was severed. The incision was washed with normal saline. Control animals were treated with saline while test animals were treated with a VRA (alvinil) (approx. 500 microliters of a 0.8 mmol solution) administered topically with a cotton-tipped applicator soaked with the VRA solution over the wound. The applicator was then removed after 5 seconds and the wound was evaluated for signs of hemorrhage.
# In the control mice, the wound was continuously flushed with saline.
# In the treatment group of animals, the wound was treated with arvinil by swab application, then flushed once with saline. […] After 10 minutes, a second incision was made in the femoral artery above the previous cut resulting in severe hemorrhage.
compound,measurement,setting,value
CCCCC/C=C\C/C=C\C/C=C\C/C=C\CCCC(=O)NCc1ccc(O)c(OC)c1 [arvinil],signs of shock,during the course of the experiment after topical treatment of the severed femoral artery,No signs of shock
same,heart perfusion at euthanasia (KCl heart puncture),end of experiment after topical treatment of both cuts,fully perfused
same,bleeding from second incision in femoral artery after application,"second incision above the previous cut after 10 minutes caused severe hemorrhage, topical application to the second cut",cessation of bleeding
same,bleeding from severed femoral artery after treatment,"swab application, approx. 500 microliters of 0.8 mmol solution, applicator removed after 5 seconds, observed following one saline flush",No bleeding was observed
